According to US20210070748A1, “INHIBITORS OF BRUTONS TYROSINE KINASE” (Pharmacyclics LLC, priority 2015, published 2021):
pIC50: −log10 of the molar value.

Key:
Type in all cases: biochemical
SRC = SRC (Homo sapiens, UniProt P12931); assay: Inhibition of a panel of kinases, in vitro HotSpot kinase assay: SRC; conditions: D-compounds panel data; 1 μM ATP
Description: (§1) The degree of inhibition of a panel of kinases is determined using the in vitro HotSpot kinase assay (purified enzymes, ^33P-ATP, an appropriate substrate and 1 μM ATP).

JAK3 = biological target: T1, JAK3 (Homo sapiens, UniProt P52333); assay: Inhibition of a panel of kinases, in vitro HotSpot kinase assay: JAK3; conditions: D-compounds panel data; 1 μM ATP; read-out: IC50 JAK3
T1 sequence (P52333 1-1124): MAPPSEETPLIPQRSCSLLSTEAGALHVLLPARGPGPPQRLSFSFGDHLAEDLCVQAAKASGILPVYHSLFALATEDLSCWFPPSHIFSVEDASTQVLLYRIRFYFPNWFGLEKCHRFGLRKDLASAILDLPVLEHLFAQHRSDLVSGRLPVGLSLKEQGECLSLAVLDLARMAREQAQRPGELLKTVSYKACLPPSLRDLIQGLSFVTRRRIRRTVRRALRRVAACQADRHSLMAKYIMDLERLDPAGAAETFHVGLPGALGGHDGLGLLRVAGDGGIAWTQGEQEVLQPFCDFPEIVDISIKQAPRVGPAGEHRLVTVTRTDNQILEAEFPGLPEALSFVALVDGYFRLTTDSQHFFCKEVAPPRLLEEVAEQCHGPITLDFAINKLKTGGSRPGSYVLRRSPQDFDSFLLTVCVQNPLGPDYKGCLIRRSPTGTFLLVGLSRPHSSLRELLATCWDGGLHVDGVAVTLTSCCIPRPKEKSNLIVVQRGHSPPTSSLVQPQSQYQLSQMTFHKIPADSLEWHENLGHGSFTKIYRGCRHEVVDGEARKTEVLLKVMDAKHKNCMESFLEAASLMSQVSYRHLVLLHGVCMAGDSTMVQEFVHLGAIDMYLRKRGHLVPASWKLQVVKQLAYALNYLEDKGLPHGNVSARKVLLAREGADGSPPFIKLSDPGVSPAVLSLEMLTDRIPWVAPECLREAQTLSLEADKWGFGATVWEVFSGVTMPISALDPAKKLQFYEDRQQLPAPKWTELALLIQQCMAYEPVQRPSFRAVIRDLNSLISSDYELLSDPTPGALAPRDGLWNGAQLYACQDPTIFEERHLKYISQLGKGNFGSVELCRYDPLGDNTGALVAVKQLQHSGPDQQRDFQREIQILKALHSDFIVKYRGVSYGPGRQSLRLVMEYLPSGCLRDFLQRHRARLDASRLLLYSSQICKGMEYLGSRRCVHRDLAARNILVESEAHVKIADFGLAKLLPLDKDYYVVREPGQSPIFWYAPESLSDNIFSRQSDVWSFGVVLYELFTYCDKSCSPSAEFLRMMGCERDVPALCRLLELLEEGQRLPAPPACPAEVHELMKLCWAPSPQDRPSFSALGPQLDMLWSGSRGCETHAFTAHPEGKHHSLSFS

EGFR = EGFR (Homo sapiens, UniProt P00533); assay: Inhibition of a panel of kinases, in vitro HotSpot kinase assay: EGFR; conditions: D-compounds panel data; 1 μM ATP
Description: as §1

Sequence of SRC (P12931 whole entry): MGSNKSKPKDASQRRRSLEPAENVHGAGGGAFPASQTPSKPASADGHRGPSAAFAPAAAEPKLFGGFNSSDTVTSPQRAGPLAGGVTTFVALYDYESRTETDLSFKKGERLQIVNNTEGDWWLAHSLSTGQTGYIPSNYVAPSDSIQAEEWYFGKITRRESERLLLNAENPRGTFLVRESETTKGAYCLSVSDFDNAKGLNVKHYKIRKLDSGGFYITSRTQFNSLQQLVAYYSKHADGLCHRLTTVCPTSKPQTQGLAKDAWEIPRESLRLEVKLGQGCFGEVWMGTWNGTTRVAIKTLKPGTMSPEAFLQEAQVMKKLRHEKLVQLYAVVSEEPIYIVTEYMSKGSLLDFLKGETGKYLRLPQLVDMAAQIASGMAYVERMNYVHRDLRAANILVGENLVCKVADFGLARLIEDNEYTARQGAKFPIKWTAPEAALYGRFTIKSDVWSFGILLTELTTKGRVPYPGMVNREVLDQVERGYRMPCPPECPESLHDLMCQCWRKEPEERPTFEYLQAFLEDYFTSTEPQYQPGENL
Sequence of EGFR (P00533 25-1210): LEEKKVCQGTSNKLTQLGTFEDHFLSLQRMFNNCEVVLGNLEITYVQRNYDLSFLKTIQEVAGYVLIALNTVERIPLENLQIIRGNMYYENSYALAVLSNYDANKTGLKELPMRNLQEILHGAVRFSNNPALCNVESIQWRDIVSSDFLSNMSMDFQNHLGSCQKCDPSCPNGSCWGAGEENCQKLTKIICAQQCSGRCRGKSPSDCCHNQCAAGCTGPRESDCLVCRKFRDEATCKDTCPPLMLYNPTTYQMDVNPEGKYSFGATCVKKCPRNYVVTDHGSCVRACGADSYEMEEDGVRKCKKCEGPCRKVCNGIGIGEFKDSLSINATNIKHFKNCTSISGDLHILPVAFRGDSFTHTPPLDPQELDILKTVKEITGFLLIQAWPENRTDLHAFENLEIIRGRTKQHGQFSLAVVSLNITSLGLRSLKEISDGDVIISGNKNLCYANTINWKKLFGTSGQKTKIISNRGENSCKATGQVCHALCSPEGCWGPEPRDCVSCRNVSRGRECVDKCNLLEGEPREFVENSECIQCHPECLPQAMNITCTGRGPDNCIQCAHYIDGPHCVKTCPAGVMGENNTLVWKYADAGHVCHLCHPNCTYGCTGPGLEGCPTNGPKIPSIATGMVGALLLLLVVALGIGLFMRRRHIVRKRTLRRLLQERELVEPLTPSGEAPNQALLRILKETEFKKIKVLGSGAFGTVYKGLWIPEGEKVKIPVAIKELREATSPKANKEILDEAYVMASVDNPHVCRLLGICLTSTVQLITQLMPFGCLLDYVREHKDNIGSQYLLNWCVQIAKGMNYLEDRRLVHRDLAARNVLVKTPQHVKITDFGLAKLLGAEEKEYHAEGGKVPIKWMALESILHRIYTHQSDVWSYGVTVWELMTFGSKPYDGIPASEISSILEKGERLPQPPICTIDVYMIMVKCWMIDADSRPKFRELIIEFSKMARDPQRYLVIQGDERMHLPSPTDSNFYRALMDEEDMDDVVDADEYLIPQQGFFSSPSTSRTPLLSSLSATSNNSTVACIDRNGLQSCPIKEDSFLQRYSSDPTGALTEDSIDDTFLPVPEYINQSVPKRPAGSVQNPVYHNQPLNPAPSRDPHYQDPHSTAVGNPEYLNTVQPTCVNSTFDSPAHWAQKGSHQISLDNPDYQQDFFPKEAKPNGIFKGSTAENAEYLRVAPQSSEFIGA

| pIC50 (SRC) | pIC50 (JAK3) | pIC50 (EGFR) | SMILES |
| --- | --- | --- | --- |
| 7.00 to 8.00 | 5.00 to 6.00 | 6.00 to 7.00 | Cc1cc(Nc2nc(N3CCC[C@@H](NC(=O)N4Cc5ccccc5C4=O)C3)cnc2C(N)=O)sn1 [Example D-15, N-[(3R)-1-{5-carbamoyl-6-[(3-methyl-1,2-thiazol-5-yl)amino]pyrazin-2-yl}piperidin-3-yl]-1-oxo-2,3-dihydro-1H-isoindole-2-carboxamide] |
| 6.00 to 7.00 | 5.00 to 6.00 | 6.00 to 7.00 | C[C@@H]1[C@H](NC(=O)c2ccc(C3CC3)cc2Cl)CCCN1c1cnc(C(N)=O)c(Nc2ccc(N3CCN(C)CC3)cc2)n1 [Example D-16, 5-[(2R,3R)-3-(2-chloro-4-cyclopropylbenzamido)-2-methylpiperidin-1-yl]-3-{[4-(4-methylpiperazin-1-yl)phenyl]amino}pyrazine-2-carboxamide] |
| 6.00 to 7.00 | 5.00 to 6.00 | 5.00 to 6.00 | C[C@@H]1[C@H](NC(=O)c2ccc(C3CC3)c(Cl)c2)CCCN1c1cnc(C(N)=O)c(Nc2ccc(N3CCN(C)CC3)cc2)n1 [Example D-17, 5-[(2R,3R)-3-(3-chloro-4-cyclopropylbenzamido)-2-methylpiperidin-1-yl]-3-{[4-(4-methylpiperazin-1-yl)phenyl]amino}pyrazine-2-carboxamide] |
| 7.00 to 8.00 | 5.00 to 6.00 | 5.00 to 6.00 | C[C@@H]1[C@H](NC(=O)c2ccc(C3CC3)nc2)CCCN1c1cnc(C(N)=O)c(Nc2cnn(C)c2)n1 [Example D-18, 5-[(2R,3R)-3-(6-cyclopropylpyridine-3-amido)-2-methylpiperidin-1-yl]-3-[(1-methyl-1H-pyrazol-4-yl)amino]pyrazine-2-carboxamide] |
| 6.00 to 7.00 | 6.00 to 7.00 | 6.00 to 7.00 | CN1CCN(C(=O)c2ccc(Nc3nc(N4CCC[C@@H](n5ccc6cc(C7CC7)ccc6c5=O)C4)cnc3C(N)=O)cc2)CC1 [Example D-169, 5-[(3R)-3-(6-cyclopropyl-1-oxo-1,2-dihydroisoquinolin-2-yl)piperidin-1-yl]-3-{[4-(4-methylpiperazine-1-carbonyl)phenyl]amino}pyrazine-2-carboxamide] |
| 6.00 to 7.00 | 5.00 to 6.00 | 6.00 to 7.00 | C/C=C/c1ccc(C(=O)N[C@@H]2CCCN(c3cnc(C(N)=O)c(Nc4cc(C)ns4)c3)[C@@H]2C)c(F)c1 [Example D-170, 5-[(2R,3R)-3-{2-fluoro-4-[(1E)-prop-1-en-1-yl]benzamido}-2-methylpiperidin-1-yl]-3-[(3-methyl-1,2-thiazol-5-yl)amino]pyridine-2-carboxamide] |
| 6.00 to 7.00 | 6.00 to 7.00 | < 5.00 | Cc1cc(Nc2nc(N3CCC[C@@H](c4ncc(-c5ccccc5)[nH]4)C3)cnc2C(N)=O)sn1 [Example D-171, 3-[(3-methyl-1,2-thiazol-5-yl)amino]-5-[(3R)-3-(5-phenyl-1H-imidazol-2-yl)piperidin-1-yl]pyrazine-2-carboxamide] |
| 6.00 to 7.00 | 6.00 to 7.00 | 7.00 to 8.00 | Cc1cc(Nc2nc(N3CCC[C@H](c4ncc(-c5ccccc5)[nH]4)C3)cnc2C(N)=O)sn1 [Example D-172, 3-[(3-methyl-1,2-thiazol-5-yl)amino]-5-[(3S)-3-(5-phenyl-1H-imidazol-2-yl)piperidin-1-yl]pyrazine-2-carboxamide] |
| 7.00 to 8.00 | 6.00 to 7.00 | 6.00 to 7.00 | C[C@@H]1[C@H](NC(=O)c2ccc(C3CC3)cc2F)CCCN1c1cnc(C(N)=O)c(Nc2cc(CN3CCOCC3)ns2)n1 [Example D-173, 5-[(2R,3R)-3-(4-cyclopropyl-2-fluorobenzamido)-2-methylpiperidin-1-yl]-3-{[3-(morpholin-4-ylmethyl)-1,2-thiazol-5-yl]amino}pyrazine-2-carboxamide] |
| 7.00 to 8.00 | 6.00 to 7.00 | 6.00 to 7.00 | CN1CCN(c2ccc(Nc3nc(N4CCC[C@@H](n5ccc6cc(C7CC7)cc(F)c6c5=O)C4)cnc3C(N)=O)cc2)CC1 [Example D-174, 5-[(3R)-3-(6-cyclopropyl-8-fluoro-1-oxo-1,2-dihydroisoquinolin-2-yl)piperidin-1-yl]-3-{[4-(4-methylpiperazin-1-yl)phenyl]amino}pyrazine-2-carboxamide] |
| 6.00 to 7.00 | 5.00 to 6.00 | 5.00 to 6.00 | Cc1cc(Nc2cc(N3CCC[C@@H](NC(=O)N(C)C)[C@H]3C)cnc2C(N)=O)sn1 [Example D-175, 5-[(2R,3R)-3-[(dimethylcarbamoyl)amino]-2-methylpiperidin-1-yl]-3-[(3-methyl-1,2-thiazol-5-yl)amino]pyridine-2-carboxamide] |
| 7.00 to 8.00 | 6.00 to 7.00 | < 5.00 | C[C@@H]1[C@H](NC(=O)c2ccc(C3CC3)cc2F)CCCN1c1cnc(C(N)=O)c(Nc2cc(CN3CCCCC3)ns2)n1 [Example D-176, 5-[(2R,3R)-3-(4-cyclopropyl-2-fluorobenzamido)-2-methylpiperidin-1-yl]-3-{[3-(piperidin-1-ylmethyl)-1,2-thiazol-5-yl]amino}pyrazine-2-carboxamide] |
| 5.00 to 6.00 | < 5.00 | < 5.00 | CN1CCN(c2ccc(Nc3cc(N4CCC[C@@H](n5ccc6cc(C7CC7)ccc6c5=O)C4)cnc3C(N)=O)cc2)CC1 [Example D-178, 5-[(3R)-3-(6-cyclopropyl-1-oxo-1,2-dihydroisoquinolin-2-yl)piperidin-1-yl]-3-{[4-(4-methylpiperazin-1-yl)phenyl]amino}pyridine-2-carboxamide] |
| < 5.00 | < 5.00 | < 5.00 | CN1CCN(c2ccc(Nc3nc(N4CCC[C@@H](n5ccc6cc(C7CC7)ccc6c5=O)C4)cnc3C(N)=O)nc2)CC1 [Example D-179, 5-[(3R)-3-(6-cyclopropyl-1-oxo-1,2-dihydroisoquinolin-2-yl)piperidin-1-yl]-3-{[5-(4-methylpiperazin-1-yl)pyridin-2-yl]amino}pyrazine-2-carboxamide] |
| < 5.00 | < 5.00 | 5.00 to 6.00 | C[C@@H]1[C@H](NC(=O)N(C)C)CCCN1c1cnc(C(N)=O)c(Nc2ccc(N3CCN(C)CC3)cn2)n1 [Example D-180, 5-[(2R,3R)-3-[(dimethylcarbamoyl)amino]-2-methylpiperidin-1-yl]-3-{[5-(4-methylpiperazin-1-yl)pyridin-2-yl]amino}pyrazine-2-carboxamide] |
| 7.00 to 8.00 | 6.00 to 7.00 | 6.00 to 7.00 | Cc1cc(Nc2nc(N3C[C@H](NC(=O)c4ccc(C5CC5)cc4F)CC[C@@H]3C)cnc2C(N)=O)sn1 [Example D-181, 5-[(2S,5R)-5-(4-cyclopropyl-2-fluorobenzamido)-2-methylpiperidin-1-yl]-3-[(3-methyl-1,2-thiazol-5-yl)amino]pyrazine-2-carboxamide] |

| SMILES | pIC50 (SRC) | pIC50 (JAK3) | pIC50 (EGFR) |
| --- | --- | --- | --- |
| CC1(c2ccc(Nc3nc(N4CCC[C@@H](n5ccc6cc(C7CC7)ccc6c5=O)C4)cnc3C(N)=O)cc2)CCN(C2CCCC2)CC1 [Example D-177, 3-{[4-(1-cyclopentyl-4-methylpiperidin-4-yl)phenyl]amino}-5-[(3R)-3-(6-cyclopropyl-1-oxo-1,2-dihydroisoquinolin-2-yl)piperidin-1-yl]pyrazine-2-carboxamide] | 7.00 to 8.00 | 6.00 to 7.00 | 6.00 to 7.00 |
